# Patent US20250206779A1, “ANGIOTENSIN-(1-9) ANALOGUE BASED ON D AMINO ACIDS, PHARMACEUTICAL COMPOSITIONS AND USES THEREOF” (UNIVERSIDAD DE CHILE, priority 2021, published 2025)
# Where a SMILES comes first, the peptide text is derived from it. [ ]: non-standard residue; d: D form.
# What was measured:
# [1] = system: neonatal rat ventricular myocytes (NRVM); experiment: Cardiomyocyte death by simulated ischemia/reperfusion (LDH release, procaspase 3 cleavage); assay type: cell-based
# Experimental: Neonatal rat ventricular myocytes (NRVM) were isolated from one- to three-day-old Sprague Dawley rats. Cells were pre-plated to discard non-myocyte cells and the myocyte-enriched fraction was plated on gelatin-precoated 35 mm dishes and grown in DMEM/M199 (4:1) medium with 10% (w/v) fetal bovine serum (FBS) and […] bromodeoxyuridine for 24 h before the experiments. Ischemia was induced by incubating the cardiomyocytes in ischemia-mimicking solution (ischemic medium) containing HEPES 5 mM, 2-deoxy-D-glucose 10 mM, NaCl 139 mM, KCl 12 mM, MgCl2 0.5 mM, CaCl2 1.3 mM and lactic acid 20 mM, pH 6.2, under O2<1%, 5% CO2 and 95% nitrogen at 37° C. for 8 h. Subsequently for simulated reperfusion, ischemia-mimicking solution was replaced by DMEM/M199 (4:1) containing 10% (w/v) FBS and NRVM were incubated for 16 h in 95% air and 5% CO2. Parallel NRVM were assigned to a control group which was exposed to normoxic conditions in a control medium containing (in mM) 5 HEPES 5 mM, D-glucose 23 mM, NaCl 139 mM, KCl 4.7 mM, MgCl2 0.5 mM, CaCl2 1.3 mM, pH 7.4 under 95% air and 5% CO2 for 8 h. Then, control medium was replaced with DMEM/M199 (4:1) containing 10% (w/v) FBS under 95% air and 5% CO2 for 16 h.
# For the evaluation of necrosis, the activity of lactate dehydrogenase (LDH) was measured spectrophotometrically at 490 nm in samples of the culture medium after normoxia (control) and sl/R both at 8 h and 16 h, using the kit CytoTox 96® Non-Radioactive Cytotoxicity Assay, Promega (Corp., Madison, WI, USA), according to the manufacturer's instructions. Apoptosis was evaluated by measuring procaspase 3 cleavage to caspase 3 by western blotting.
# [2] = system: spontaneously hypertensive rats (SHR); experiment: Fibroblast proliferation in cardiac tissue of SHR, Ki67 immunohistochemistry; assay type: in vivo, rat; details: SHR, 1,200 ng/kg/min, 14 days
# Experimental: Experimental animal model. All procedures were performed in accordance with the Guide for the Care and Use of Laboratory Animals published by the U.S. National Institutes of Health (NIH Publication 85 23, 1985) and approved by our Institutional Bioethics Committee. The animals were housed under the continuous professional monitoring of the Medical Veterinary staff in the animal facility of the Pontificia Universidad Católica de Chile, under the following conditions: 12-h light-dark cycle; 21° C. ambient temperature; 50% humidity; adequate ventilation; noise-free environment; and food and water ad libitum. […] Systolic blood pressure (SBP), diastolic blood pressure (DBP) and body weight (BW) were measured at the end of the treatment period and the animals were then sacrificed.
# Immunohistochemistry for Ki67. Proliferation of fibroblast, another marker of fibrosis, was assessed by measuring the presence of Ki-67 positive nuclei. […] Two blinder researchers counted manually positive cells in 10 high-power fields (×40). […] The percentage of positive Ki67 cells was calculated. As observed with the above cardiac fibrosis marker, collagen content assessed by picrosirius red staining, in hypertensive SHR, an increase in fibroblast with Ki-67 positive nuclei were found, confirming the occurrence of cardiac fibrosis.
smiles,measurement,setting,value
"CC[C@@H](C)[C@@H](NC(=O)[C@@H](Cc1c[nH]cn1)NC(=O)[C@H]1CCCN1C(=O)[C@@H](Cc1ccccc1)NC(=O)[C@H](N)Cc1c[nH]cn1)C(=O)N[C@H](Cc1ccc(O)cc1)C(=O)N[C@@H](C(=O)N[C@H](CCCNC(=N)N)C(=O)N[C@H](CC(=O)O)C(=O)O)C(C)C [retro-inverse angiotensin-(1-9), NH2-^DH^DF^DP^DH^DI^DY^DV^DR^DD-COOH] (H-[dH][dF][dP][dH][dI][dY][dV][dR][dD]-OH)",cardiomyocyte apoptosis induced by ischemia reperfusion (procaspase 3 cleavage),"[1]; 10 μM peptide, western blotting",inhibited
same,cardiomyocyte necrosis induced by ischemia reperfusion (LDH release),[1]; 1 and 10 μM peptide,Significative necrosis inhibition
same,cardiomyocyte necrosis induced by ischemia reperfusion (LDH release),[1]; simulated ischemia 8 h / reperfusion 16 h,inhibited in a dose response manner
same,increase of fibroblast with Ki-67 positive nuclei induced by hypertension,[2],reversed the increase
